Values belong to the substance of their own block, whether it stands above or below them. Ends that are not written are not given here.
Assays:
[1] = system: Y2-like receptors; assay: Inhibition of the increase in pulse interval evoked by vagus nerve stimulation in anaesthetised rats (prejunctional activity); format: in vivo; details: for in vivo activity at Y2 receptors (potency as inhibitor of the effect of vagal stimulation on heart rate): compared with Ac[L28,L31]NPY24-36; for EC50 ΔP1%: change in pulse interval, anaesthetised rats, intravenous peptide
Experimental: (§1) Experiments were carried out on adult rats (Wistar) of both sexes (250-350g), anaesthetised with sodium pentobarbitone (Nembutal, Boehringer-Ingleheim; 60 mg/kg, i.p.). The trachea was cannulated and the animal artificially ventilated. The femoral vein was cannulated for administration of peptides and further doses of anaesthetic. The left femoral artery was cannulated to record arterial pressure. Both vagus nerves were cut. […] The frequency was chosen to increase pulse interval by approximately 100 ms, a submaximal effect on this variable. The electrocardiogram was measured using needle electrodes and monitored on one channel of an osciloscope. Pulse interval (the period between successive beats of the heart) was recorded beat-by-beat by triggering from ECG. Pulse interval and arterial pressure were recorded on the pen recorder.
Dose-response curves were constructed from group data for all rats. Because of the long time-course of action of the peptides tested, not all peptides were given to each rat. Usually however, each rat received neuropeptide Y and two other peptides.
(§2) As an indication of prejunctional activity two parameters were measured; the maximum percent inhibition of the increase in pulse interval evoked by stimulation of the vagus nerve following injection of peptide and the time to half recovery of this effect (T50). For pressor action, an indicator of postjunctional activity, two parameters were also measured; the peak pressor response following injection of peptide and the duration of the increase in blood pressure. These indices give a reliable measure of the actions of a peptide at pre-and postjunctional sites, and have been used previously in this laboratory for this purpose; Potter et al., 1989; Potter et al., 1991). Results were analysed using a one-way ANOVA.

[2] = system: human Y2 receptor; assay: [125I]NPY receptor binding assay on SMS-MSN cells; details: for IC50: SMS-MSN cells, 30 pM [125I]NPY
Experimental: SK-N-MC cells expressing the human Y1 receptor and SMS-MSN cells expressing the human Y2 receptor were obtained from the ATCC. They were cultured in 1:1 DMEM:Ham's F12 medium (ICN) containing 10% fetal calf serum, 0.1% non-essential amino acids, 0.2 mM glutamine, and 0.056% sodium bicarbonate. Confluent cells were harvested in scraping and pellets were stored at -80°C. On the day of use cells were thawed, washed once in binding buffer salts, passed several times through a 22 ga. needle, and the protein content was assayed using bicinchoninic acid (BCA kit, Pierce).
Just before use, plates were filtered and washed twice with 50 mM Tris-HCI pH 7.4 / 0.1% BSA. […] Binding was terminated by filtration. […] Specific binding was analysed by nonlinear regression using a single-site fitting function (Graphpad Prism). Nonspecific binding was defined by binding in the presence of 1 µM competitor.

[3] = system: neuropeptide Y Y2 receptor subtype; details: SMS-KAN cells; cited from earlier work
[4] = system: neuropeptide Y Y1 receptor type; details: SK-N-MC cells; cited from earlier work
[5] = system: human neuropeptide Y Y1 receptor; details: Y1 receptor expressed in fibroblast cells; cited from earlier work
[6] = system: Y1 receptors; assay: Pressor response (blood pressure increase) after peptide injection in anaesthetised rats (postjunctional activity); format: in vivo
Experimental: as §1, with “The” for “The frequency was chosen to increase pulse interval by approximately 100 ms, a submaximal effect on this variable. The”
Dose-response curves were constructed from group data for all rats. Because of the long time-course of action of the peptides tested, not all peptides were given to each rat.
as §2, with “These indices give a reliable measure of the actions of a peptide at pre-and postjunctional sites, and have been used previously in this laboratory for this purpose; Potter et al., 1989; Potter et al., 1991).” left out

[7] = system: transmitter release from renal nerves; assay: Kidney blood flow: increase of renal vascular resistance elicited by renal nerve stimulation; format: in vivo, dogs; details: 40 nmol dose; Figure 1
Experimental: Experiments were carried out in six, adult, mongrel dogs of both sexes weighing between 18 and 26 kg. The dogs were anaesthetised with a bolus injection of sodium pentobarbitone (36 mg/kg intravenous; Nembutal, Boehringer Ingelheim) and then maintained on an infusion (2-3 mg/kg/hr). The animal was artificially ventilated, maintained at constant temperature and blood pressure and heart rate were monitored continuously.
The left kidney was exposed retroperitoneally and renal arterial blood flow was monitored continuously (Pernow & Lundberg, 1989a), using a transonic flow probe (Transonic System Inc., N.Y.). Postganglionic nerves to the kidney were isolated, cut and placed over bipolar, platinum electrodes for stimulation (1-10 Hz, 5-10 V, 1-5 msec).
The renal nerve was stimulated over a range of frequencies (1-10 Hz) for 30 secs and a frequency-response curve constructed. The responses were measured at the peak change in flow. […] Responses were reported as change in vascular resistance.

[8] = system: neuropeptide Y Y2 (prejunctional); details: studies in vivo; cited from earlier work
[9] = system: neuropeptide Y Y1 receptor; details: studies in vivo; cited from earlier work

EC50 ΔP1% [1]: 1.26 nmol
Substance: Ac[L28,I30]NPY24-36 (Ac-LRHYLNIITRQRY; ends and bridges not checked; UniProt P01303 52-64, looked up, variant I28L L30I)

EC50 ΔP1% [1]: 1.48 nmol
Substance: Ac-LRHYLALLTRQRY-NH2 [Ac[L28,A29,L31]NPY24-36]

EC50 ΔP1% [1]: 0.39 nmol
Substance: Ac-LRHYLNALTRQRY-NH2 [Ac[L28,A30,L31]NPY24-36]

EC50 ΔP1% [1]: 1.95 nmol
Substance: Ac-LAHYRNLLTRQRY-NH2 [Ac[A25,R28,L31]NPY24-36]

EC50 ΔP1% [1]: 0.78 nmol
Substance: Ac-LRHYLNLATRQRY-NH2 [Ac[L28,A31]NPY24-36]

EC50 ΔP1% [1]: 1.26 nmol
Substance: Ac-LRAYLNLLTRQRY-NH2 [Ac[A26,L28,L31]NPY24-36]

EC50 ΔP1% [1]: 6.46 nmol
Substance: Ac-LRHYLNLLARQRY-NH2 [Ac[L28,L31,A32]NPY24-36]

EC50 ΔP1% [1]: 2.75 nmol
Substance: Ac-LRHYANLLTRQRY-NH2 [Ac[A28,L31]NPY24-36]

EC50 ΔP1% [1]: 0.52 nmol
Substance: Ac-LRHALNLLTRQRY-NH2 [Ac[A27,L28,L31]NPY24-36]

Further lines, the substance ahead of its results:

Substance: Ac[A26,A27,L28,L31]NPY24-36 (Ac-LRAALNLLTRQRY; ends and bridges not checked; UniProt P01303 52-64, looked up, variant H26A Y27A I28L I31L) [Ac[A26,27,L28,31]NPY24-36]
in vivo activity at Y2 receptors (potency as inhibitor of the effect of vagal stimulation on heart rate) [1]: enhanced in vivo activity at Y2 receptors

Substance: Ac-LRHYLNLLTRQRY-NH2 [Ac[L28,L31]NPY24-36]
EC50 ΔP1% [1]: 3.16 nmol | IC50 [2]: 3.9 nM | affinity for the neuropeptide Y Y2 receptor subtype [3]: significant affinity | affinity for the neuropeptide Y Y1 receptor type [4]: no affinity | increase in cytosolic calcium [5]: did hot stimulate

Substance: Ac-ARHYLNLLTRQRY-NH2 [Ac[A24,L28,L31]NPY24-36]
EC50 ΔP1% [1]: 0.46 nmol

Substance: Ac-ARHALNLLTRQRY-NH2 [Ac[A24,A27,L28,L31]NPY24-36, Ac[Ala24, Ala27, Leu28, Leu31]NPY(24-36)]
EC50 ΔP1% [1]: 0.89 nmol | in vivo activity at Y2 receptors (potency as inhibitor of the effect of vagal stimulation on heart rate) [1]: enhanced in vivo activity at Y2 receptors | direct effect on the circulation ([6]; 40 nmol dose, Table 1): exerted no direct effect on the circulation | affinity for NPY Y2 receptors ([2]; in words): high affinity for NPY Y2 receptors | inhibition of the increase of renal vascular resistance elicited by renal nerve stimulation [7]: almost completely inhibited the effect of nerve stimulation

Substance: Neuropeptide Y [NPY]
change of blood pressure ([6]; in vivo in rats, at the doses tested): raised blood pressure significantly in a dose-dependent manner

Substance: Ac-ARAALNAATRQRY-NH2 [Ac[A24,26,27,30,31,L28]NPY24-36]
EC50 ΔP1% [1]: 0.56 nmol | in vivo activity at Y2 receptors (potency as inhibitor of the effect of vagal stimulation on heart rate) [1]: enhanced in vivo activity at Y2 receptors

Substance: (Leu^17, Glu^19, Ala^21, Ala^22, Glu^23, Leu^28, Leu^31) neuropeptide Y-(13-36) [ANA neuropeptide Y-(13-36)]
prejunctional activity [8]: prejunctional activity equivalent to the whole neuropeptide Y molecule | pressor activity [9]: retained significant pressor activity

Substance: Ac-LAHYLNLLTRQRY-NH2 [Ac[A25,L28,L31]NPY24-36]
EC50 ΔP1% [1]: 1.58 nmol | IC50 [2]: 2 nM

Substance: AcNPY 24-36
Increase in BP (rel to NPY) ([6]; anaesthetised rats, †: No response to 10 nmole dose): Of
